These results are taken from US20240009191A1, “METHOD AND COMPOSITION FOR THE TREATMENT OF DISEASE” (DIMERIX BIOSCIENCE PTY LTD, priority 2019, published 2024).

Holding throughout (format): cell-based
The target of test [1] is T1, AT1R-CXCR2 heteromer (Homo sapiens, UniProt P25025+P30556).
T1 sequence (P25025 1-360): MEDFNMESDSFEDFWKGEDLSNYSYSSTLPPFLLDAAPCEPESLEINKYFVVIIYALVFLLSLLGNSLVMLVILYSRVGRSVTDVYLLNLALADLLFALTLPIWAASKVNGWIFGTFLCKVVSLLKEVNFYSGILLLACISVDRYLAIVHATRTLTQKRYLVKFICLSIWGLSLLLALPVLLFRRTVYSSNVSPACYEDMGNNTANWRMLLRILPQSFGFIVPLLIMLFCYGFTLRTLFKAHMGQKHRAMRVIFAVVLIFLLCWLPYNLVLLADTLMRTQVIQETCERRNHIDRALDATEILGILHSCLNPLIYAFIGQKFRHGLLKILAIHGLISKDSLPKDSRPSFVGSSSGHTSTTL
T1 sequence (P30556 1-359): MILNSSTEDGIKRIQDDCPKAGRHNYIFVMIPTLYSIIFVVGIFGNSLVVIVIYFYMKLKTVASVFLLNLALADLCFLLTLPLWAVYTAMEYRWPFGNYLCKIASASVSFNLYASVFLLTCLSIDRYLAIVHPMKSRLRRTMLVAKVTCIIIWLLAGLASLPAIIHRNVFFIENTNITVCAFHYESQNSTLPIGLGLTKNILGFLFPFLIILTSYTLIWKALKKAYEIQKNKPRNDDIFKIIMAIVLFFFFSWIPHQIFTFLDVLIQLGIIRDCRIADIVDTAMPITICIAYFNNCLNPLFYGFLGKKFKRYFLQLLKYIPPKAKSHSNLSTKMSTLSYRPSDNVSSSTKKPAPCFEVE
Briefly: BRET Gi coupling, CXCR2/Rluc8, Venus/mGsi and HA-AT1R, pre-treatment with antagonists/inverse agonists. Conditions: FIGS. 6-15. The protocol: (§1) HEK293FT cells were seeded in 6-well plates at a density of approximately 700,000 cells/well and maintained at 37° C., 5% CO2 in Complete Media (DMEM containing 0.3 mg/ml glutamine, 100 IU/ml penicillin and 100 μg/ml streptomycin (Gibco/Thermo Fisher)) supplemented with 10% fetal calf serum (FCS; Bovogen). Transient transfections were carried out 24 h after seeding using FuGene6™ (Promega) according to manufacturer instructions. 24 h post-transfection, cells were washed with PBS, detached using 0.05% trypsin/0.53 mM EDTA, resuspended in HEPES-buffered phenol red free Complete Media containing 5% FCS and added to a poly-L-lysine-coated white 96-well microplate (Greiner Bio-One). 48 h post-transfection, bioluminescence resonance energy transfer (BRET) assays were carried out following pre-incubation of cells with EnduRen™ (Promega) at a final concentration of 30 μM, at 37° C., 5% CO2 for 2 h. BRET measurements were taken at 37° C. using the LUMlstar™ or CLARIOstar™ (BMG Labtech).
(§2) For antagonist/inverse agonist assays, cells were pre-incubated with EnduRen for 1.5 hours, followed by the addition of vehicle or antagonists/inverse agonists (10 μM) for another 30 minutes.
(§3) The BRET signal observed between interacting proteins is normalized by subtracting the background BRET ratio. […] In the following examples, the second calculation will be used and the signal is described as ligand-induced BRET′. Furthermore, for data shown in FIGS. 4 to 20, all data points in a given set are corrected relative to the final data point prior to agonist treatment, which is fixed to zero. In keys on FIGS. 7 to 20, “>” means “followed by after 50 minutes”, with agonists added at time zero on the x-axes.
(§4) Prior to agonist treatment (added at 0 minutes), a baseline BRET signal was recorded for each of the combinations for 20 minutes. Data were calculated as ligand-induced BRET relative to the ‘vehicle followed by vehicle’ (veh>veh) data set.
(In general: In BRET a luciferase serves as donor, and the signal depends on an acceptor being close.)

Test [2] concerns the target T1, AT1R-CXCR2 heteromer. Briefly: BRET trafficking of CXCR2/Rluc8 (Venus/Kras, Rab5, Rab8) with HA-AT1R, pre-treatment with vehicle or antagonists/inverse agonists. Particulars: 50 minutes after pre-treatment (10 μM). The protocol: as §1, §2, §3, §4
In test [3] the target is T2, AT1R-CXCR2 heteromer (Homo sapiens, UniProt P25025+P30556).
T2 sequence (P30556 1-359): T1 sequence (P30556 1-359)
T2 sequence (P25025 1-360): T1 sequence (P25025 1-360)
Briefly: BRET trafficking of AT1R/Rluc8 (Venus/Kras, Rab5) with unlabelled CXCR2, pre-treatment with vehicle or antagonists/inverse agonists. Particulars: 50 minutes after pre-treatment (10 μM). The protocol:
as §1, §2, §3, §4

With `CCCCC(=O)N(Cc1ccc(-c2ccccc2-c2nnn[nH]2)cc1)[C@H](C(=O)O)C(C)C` [valsartan], on AT1R-CXCR2 heteromer [1] (10 nM CXCL8, 50 minutes after pre-treatment with antagonists/inverse agonists (10 μM)), the “effect of CXCL8 only on CXCR2/Rluc8-Venus/mGsi BRET” value was “not being altered”. Besides, the “effect of CXCL8 and AngII combined on CXCR2/Rluc8-Venus/mGsi BRET” value at AT1R-CXCR2 heteromer [1] (10 nM CXCL8 and 100 nM AngII, 50 minutes after pre-treatment with antagonists/inverse agonists (10 μM)) is recorded as “indistinguishable from that observed with CXCL8 only”. Also, the “effect of AngII only on CXCR2/Rluc8-Venus/mGsi BRET” value on AT1R-CXCR2 heteromer [1] (100 nM AngII, 50 minutes after pre-treatment with antagonists/inverse agonists (10 μM)) is “completely inhibited”. The “effect of both CXCL8 and AngII combined on CXCR2/Rluc8-Venus/Kras BRET” value at AT1R-CXCR2 heteromer [2] (10 nM CXCL8 and 100 nM AngII, FIG. 16C, 16E-16H) was “indistinguishable from the effect observed with CXCL8 only”. For the same compound, the “effect of both CXCL8 and AngII combined on CXCR2/Rluc8-Venus/Rab5 BRET” value at AT1R-CXCR2 heteromer [2] (10 nM CXCL8 and 100 nM AngII, FIG. 17C, 17E-17H) is “indistinguishable from the effect observed with CXCL8 only”. In addition, at AT1R-CXCR2 heteromer [2] (10 nM CXCL8 and 100 nM AngII, FIG. 18C, 18E-18H), the “effect of both CXCL8 and AngII combined on CXCR2/Rluc8-Venus/Rab8 BRET” value is “completely inhibited”. Further, the “effect of AngII on CXCR2/Rluc8-Venus/Kras BRET” value on AT1R-CXCR2 heteromer [2] (100 nM AngII only, FIG. 16B, 16D) is “completely inhibited”. Further, at AT1R-CXCR2 heteromer [2] (100 nM AngII only, FIG. 17B, 17D), the “effect of AngII on CXCR2/Rluc8-Venus/Rab5 BRET” value is on record as “completely inhibited”. Also, on AT1R-CXCR2 heteromer [2] (100 nM AngII only, FIG. 18B, 18D), the “effect of AngII on CXCR2/Rluc8-Venus/Rab8 BRET” value is on record as “completely inhibited”. Further, at AT1R-CXCR2 heteromer [3] (10 nM CXCL8 and 100 nM AngII, FIG. 19B-19F), the “effect of both CXCL8 and AngII combined on AT1R/Rluc8-Venus/Kras BRET” value was “completely inhibited”. For the same compound, the “effect of both CXCL8 and AngII combined on AT1R/Rluc8-Venus/Rab5 BRET” value at AT1R-CXCR2 heteromer [3] (10 nM CXCL8 and 100 nM AngII, FIG. 20B-20F) was “completely inhibited”. Further, the “effect of AngII on AT1R/Rluc8-Venus/Kras BRET” value on AT1R-CXCR2 heteromer [3] (100 nM AngII only, FIG. 19A) is given as “completely inhibited”. Besides, the “effect of AngII on AT1R/Rluc8-Venus/Rab5 BRET” value at AT1R-CXCR2 heteromer [3] (100 nM AngII only, FIG. 20A) was “completely inhibited”.
